From article PMC11956017, “Design of Benzyl-triazolopyrimidine-Based NADPH Oxidase Inhibitors Leads to the Discovery of a Potent Dual Covalent NOX2/MAOB Inhibitor” (Journal of Medicinal Chemistry, 2025)
Entries after “also recorded” stand apart in the source; their conditions may differ.

Experiments:
human MAOB = target: T1, human MAOB (Homo sapiens, UniProt P27338); assay: Spectrophotometric monitoring of MAOB flavin covalent modification; assay type: binding
T1 construct: made in house; host or cells: Pichia pastoris
T1 sequence (P27338 1-520): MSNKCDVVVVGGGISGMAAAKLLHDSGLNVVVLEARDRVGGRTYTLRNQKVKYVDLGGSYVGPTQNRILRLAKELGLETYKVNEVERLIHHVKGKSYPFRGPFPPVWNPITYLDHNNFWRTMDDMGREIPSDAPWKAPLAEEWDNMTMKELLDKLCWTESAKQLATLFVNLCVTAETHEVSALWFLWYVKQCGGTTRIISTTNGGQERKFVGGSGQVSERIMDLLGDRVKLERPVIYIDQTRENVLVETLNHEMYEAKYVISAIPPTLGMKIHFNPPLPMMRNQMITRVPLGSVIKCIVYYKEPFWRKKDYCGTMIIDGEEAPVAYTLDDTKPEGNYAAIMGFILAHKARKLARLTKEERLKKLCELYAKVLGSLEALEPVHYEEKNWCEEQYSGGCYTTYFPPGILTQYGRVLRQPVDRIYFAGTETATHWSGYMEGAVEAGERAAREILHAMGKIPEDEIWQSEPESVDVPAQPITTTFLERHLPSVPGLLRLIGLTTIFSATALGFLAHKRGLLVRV
Method: IC50 values on human MAOA and human MAOB were determined using the Amplex Red/horseradish peroxidase coupled assay. […] Measurements were performed using a ClarioStar plate reader (excitation 572 nm and emission 583 nm) (BMG Labtech). IC50 values were obtained by fitting the percentage of inhibition versus log(inhibitor concentration) using GraphPad software 7.0. The covalent modification of the flavin upon the reaction with the propargylamine-containing inhibitors was monitored spectrophotometrically using a diode array UV/visible spectrophotometer (Agilent Technologies). […] The cofactor covalent modification was monitored over time following the shift of the enzyme-bound flavin (peaks at 370 and 456 nm) to 410 nm (ε410 = 23,500 M^–1 cm^–1) (Figure S10).

BV2 cells = assay: ROS detection with CellROX Deep Red in BV2 cells; assay type: cell-based, murine; settings: 10 μM, LPS/IFN-γ stimulation, 48 h
Method: BV2 murine microglial cells were cultured in DMEM supplemented with 10% heat-inactivated FBS, 100 IU/mL penicillin G, […] streptomycin, and […] amphotericin B and grown at 37 °C in 5% CO2 and a humidified atmosphere. […] After 30 min, LPS 100 ng/mL and IFN-γ 20 ng/mL were added to the medium for an additional 48 h. After treatment, BV2 cells were incubated with a CellROX Deep Red reagent (cat. no. C10422) at 5 μM and incubated for 30 min at 37 °C as indicated by the manufacturer protocol. ROS levels were measured by a spectrofluorometer, taking as 100% the median fluorescence intensity of cells treated with the vehicle.

Structure (SMILES): C#CCN(C)Cc1ccc(Cn2nnc3c(Sc4nc5ccccc5o4)ncnc32)cc1 [Compound 9a, N-(4-((7-(Benzo[d]oxazol-2-ylthio)-3H-[1,2,3]triazolo[4,5-d]pyrimidin-3-yl)methyl)benzyl)-N-methylprop-2-yn-1-amine]
- covalent flavin adduct with MAOB (absorbance shift to 410 nm) (human MAOB; 5-fold molar excess over 20 μM protein): formation of a covalent N-methyl-N-propargylamine-flavin adduct
- MAOB cofactor modified at the final time point (human MAOB; after 30 min of incubation): 18.4 µM
- calculated inhibited fraction of MAOB (human MAOB; after 30 min of incubation): 91.8%
- ROS levels in BV2 cells (BV2 cells): decrease the ROS levels; also recorded: strongest ROS-dumping activity
